# Experimental data: patent US12435044B2, “Pyridazinone herbicides and pyridazinone intermediates used to prepare a herbicide” (FMC Corporation, priority 2018, dated 2025)
# Assays:
# Assay in all cases: Test C pre-/postemergence greenhouse test
# Format in all cases: in vivo
# Details in all cases: scale 0 to 100
# [1] = system: corn (Zea mays)
# From the text: (§1) Seeds of plant species selected from blackgrass (Alopecurus myosuroides), ryegrass, Italian (Lolium multiflorum), wheat, winter (winter wheat, Triticum aestivum), galium (catchweed bedstraw, Galium aparine), corn (Zea mays), crabgrass, large (Digitaria sanguinalis), foxtail, giant (Setaria faberii), johnsongrass (Sorghum halepense), lambsquarters (Chenopodium album), morningglory (Ipomoea coccinea), nutsedge, yellow (Cyperus esculentus), pigweed (Amaranthus retroflexus), ragweed (common ragweed, Ambrosia elatior), soybean (Glycine max), barnyardgrass (Echinochloa crus-galli), oilseed rape (Brassica napus), waterhemp (common waterhemp, Amaranthus rudis), pigweed, palmer (Amaranthus palmeri), kochia (Kochia scoparia), oat, wild (Avena fatua), surinam grass (Brachiaria decumbens), windgrass (Apera spica-venti), poinsettia, wild (Euphorbia heterophylla) and velvetleaf (Abutilon theophrasti) were planted into a silt loam soil and treated preemergence with test chemicals formulated in a non-phytotoxic solvent mixture which included a surfactant.
# (§2) At the same time, plants selected from these crop and weed species and also chickweed (common chickweed, Stellaria media), buckwheat, wild (Polygonum convolvulus), mustard, wild (Sinapis arvensis), field poppy (Papaver rhoeas), field violet (Viola arvensis), nightshade (eastern black nightshade, Solanum ptycanthum), speedwell (bird's-eye speedwell, Veronica persica), horseweed (Conyza canadensis), cutleaf geranium (Geranium dissectum), and Canada thistle (Cirsium arvense) were planted in pots containing Redi-Earth® planting medium (Scotts Company, 14111 Scottslawn Road, Marysville, Ohio 43041) comprising spaghnum peat moss, vermiculite, wetting agent and starter nutrients and treated with postemergence applications of test chemicals formulated in the same manner. Plants ranged in height from 2 to 18 cm (1- to 4-leaf stage) for postemergence treatments. Treated plants and controls were maintained in a greenhouse for 13 to 21 d, after which time all species were compared to controls and visually evaluated. Plant response ratings, summarized in Table C-1 (postemergence) and C-2 (preemergence), are based on a scale of 0 to 100 where 0 is no effect and 100 is complete control. A dash (-) response means no test result.
# [2] = system: crabgrass, large (Digitaria sanguinalis)
# From the text: as §1, §2
# [3] = system: foxtail, giant (Setaria faberii)
# From the text: as §1, §2
# [4] = system: galium (catchweed bedstraw, Galium aparine)
# From the text: as §1, §2
# [5] = system: johnsongrass (Sorghum halepense)
# From the text: as §1, §2
# [6] = system: kochia (Kochia scoparia)
# From the text: as §1, §2
# [7] = system: lambsquarters (Chenopodium album)
# From the text: as §1, §2
# [8] = system: nutsedge, yellow (Cyperus esculentus)
# From the text: as §1, §2
# [9] = system: pigweed, palmer (Amaranthus palmeri)
# From the text: as §1, §2
# [10] = system: poinsettia, wild (Euphorbia heterophylla)
# From the text: as §1, §2
# [11] = system: ryegrass, Italian (Lolium multiflorum)
# From the text: as §1, §2
# [12] = system: soybean (Glycine max)
# From the text: as §1, §2
# [13] = system: surinam grass (Brachiaria decumbens)
# From the text: as §1, §2
# [14] = system: windgrass (Apera spica-venti)
# From the text: as §1, §2
smiles,measurement,setting,value
Cc1ccc2ccc(Cl)cc2c1-c1c(O)c(Cl)nn(C)c1=O [Cpd. No. 22],"Plant response rating, Corn","[1]; Postemergence, 16 g ai/ha",0
same,"Plant response rating, Corn","[1]; Postemergence, 31 g ai/ha",20
same,"Plant response rating, Corn","[1]; Postemergence, 62 g ai/ha",35
same,"Plant response rating, Corn","[1]; Postemergence, 125 g ai/ha",25
same,"Plant response rating, Corn","[1]; Preemergence, 31 g ai/ha",10
same,"Plant response rating, Corn","[1]; Preemergence, 61 g ai/ha",5
same,"Plant response rating, Corn","[1]; Preemergence, 62 g ai/ha",5
same,"Plant response rating, Corn","[1]; Preemergence, 125 g ai/ha",30
same,"Plant response rating, Crabgrass, Large","[2]; Postemergence, 16 g ai/ha",10
same,"Plant response rating, Crabgrass, Large","[2]; Postemergence, 31 g ai/ha",25
same,"Plant response rating, Crabgrass, Large","[2]; Postemergence, 62 g ai/ha",15
same,"Plant response rating, Crabgrass, Large","[2]; Postemergence, 125 g ai/ha",60
same,"Plant response rating, Crabgrass, Large","[2]; Preemergence, 31 g ai/ha",25
same,"Plant response rating, Crabgrass, Large","[2]; Preemergence, 61 g ai/ha",5
same,"Plant response rating, Crabgrass, Large","[2]; Preemergence, 62 g ai/ha",75
same,"Plant response rating, Crabgrass, Large","[2]; Preemergence, 125 g ai/ha",85
same,"Plant response rating, Foxtail, Giant","[3]; Postemergence, 16 g ai/ha",85
same,"Plant response rating, Foxtail, Giant","[3]; Postemergence, 31 g ai/ha",90
same,"Plant response rating, Foxtail, Giant","[3]; Postemergence, 62 g ai/ha",95
same,"Plant response rating, Foxtail, Giant","[3]; Postemergence, 125 g ai/ha",98
same,"Plant response rating, Foxtail, Giant","[3]; Preemergence, 31 g ai/ha",80
same,"Plant response rating, Foxtail, Giant","[3]; Preemergence, 61 g ai/ha",0
same,"Plant response rating, Foxtail, Giant","[3]; Preemergence, 62 g ai/ha",100
same,"Plant response rating, Foxtail, Giant","[3]; Preemergence, 125 g ai/ha",100
same,"Plant response rating, Galium","[4]; Postemergence, 16 g ai/ha",85
same,"Plant response rating, Galium","[4]; Postemergence, 31 g ai/ha",85
same,"Plant response rating, Galium","[4]; Postemergence, 62 g ai/ha",95
same,"Plant response rating, Galium","[4]; Postemergence, 125 g ai/ha",98
same,"Plant response rating, Galium","[4]; Preemergence, 31 g ai/ha",50
same,"Plant response rating, Galium","[4]; Preemergence, 61 g ai/ha",20
same,"Plant response rating, Galium","[4]; Preemergence, 62 g ai/ha",70
same,"Plant response rating, Galium","[4]; Preemergence, 125 g ai/ha",95
same,"Plant response rating, Johnsongrass","[5]; Postemergence, 16 g ai/ha",20
same,"Plant response rating, Johnsongrass","[5]; Postemergence, 31 g ai/ha",40
same,"Plant response rating, Johnsongrass","[5]; Postemergence, 62 g ai/ha",50
same,"Plant response rating, Johnsongrass","[5]; Postemergence, 125 g ai/ha",60
same,"Plant response rating, Johnsongrass","[5]; Preemergence, 31 g ai/ha",30
same,"Plant response rating, Johnsongrass","[5]; Preemergence, 61 g ai/ha",5
same,"Plant response rating, Johnsongrass","[5]; Preemergence, 62 g ai/ha",50
same,"Plant response rating, Johnsongrass","[5]; Preemergence, 125 g ai/ha",70
same,"Plant response rating, Kochia","[6]; Postemergence, 16 g ai/ha",25
same,"Plant response rating, Kochia","[6]; Postemergence, 31 g ai/ha",35
same,"Plant response rating, Kochia","[6]; Postemergence, 62 g ai/ha",65
same,"Plant response rating, Kochia","[6]; Postemergence, 125 g ai/ha",70
same,"Plant response rating, Kochia","[6]; Preemergence, 31 g ai/ha",5
same,"Plant response rating, Kochia","[6]; Preemergence, 61 g ai/ha",0
same,"Plant response rating, Kochia","[6]; Preemergence, 62 g ai/ha",80
same,"Plant response rating, Kochia","[6]; Preemergence, 125 g ai/ha",95
same,"Plant response rating, Lambsquarters","[7]; Postemergence, 16 g ai/ha",80
same,"Plant response rating, Lambsquarters","[7]; Postemergence, 31 g ai/ha",85
same,"Plant response rating, Lambsquarters","[7]; Postemergence, 62 g ai/ha",100
same,"Plant response rating, Lambsquarters","[7]; Postemergence, 125 g ai/ha",85
same,"Plant response rating, Lambsquarters","[7]; Preemergence, 31 g ai/ha",75
same,"Plant response rating, Lambsquarters","[7]; Preemergence, 61 g ai/ha",70
same,"Plant response rating, Lambsquarters","[7]; Preemergence, 62 g ai/ha",90
same,"Plant response rating, Lambsquarters","[7]; Preemergence, 125 g ai/ha",100
same,"Plant response rating, Nutsedge, Yellow","[8]; Postemergence, 16 g ai/ha",10
same,"Plant response rating, Nutsedge, Yellow","[8]; Postemergence, 31 g ai/ha",35
same,"Plant response rating, Nutsedge, Yellow","[8]; Postemergence, 62 g ai/ha",90
same,"Plant response rating, Nutsedge, Yellow","[8]; Postemergence, 125 g ai/ha",85
same,"Plant response rating, Nutsedge, Yellow","[8]; Preemergence, 31 g ai/ha",50
same,"Plant response rating, Nutsedge, Yellow","[8]; Preemergence, 61 g ai/ha",25
same,"Plant response rating, Nutsedge, Yellow","[8]; Preemergence, 62 g ai/ha",75
same,"Plant response rating, Nutsedge, Yellow","[8]; Preemergence, 125 g ai/ha",95
same,"Plant response rating, Pigweed, Palmer","[9]; Postemergence, 16 g ai/ha",50
same,"Plant response rating, Pigweed, Palmer","[9]; Postemergence, 31 g ai/ha",70
same,"Plant response rating, Pigweed, Palmer","[9]; Postemergence, 62 g ai/ha",70
same,"Plant response rating, Pigweed, Palmer","[9]; Postemergence, 125 g ai/ha",75
same,"Plant response rating, Pigweed, Palmer","[9]; Preemergence, 31 g ai/ha",65
same,"Plant response rating, Pigweed, Palmer","[9]; Preemergence, 61 g ai/ha",40
same,"Plant response rating, Pigweed, Palmer","[9]; Preemergence, 62 g ai/ha",75
same,"Plant response rating, Pigweed, Palmer","[9]; Preemergence, 125 g ai/ha",100
same,"Plant response rating, Poinsettia, Wild","[10]; Postemergence, 16 g ai/ha",25
same,"Plant response rating, Poinsettia, Wild","[10]; Postemergence, 31 g ai/ha",25
same,"Plant response rating, Poinsettia, Wild","[10]; Postemergence, 62 g ai/ha",40
same,"Plant response rating, Poinsettia, Wild","[10]; Postemergence, 125 g ai/ha",35
same,"Plant response rating, Poinsettia, Wild","[10]; Preemergence, 31 g ai/ha",5
same,"Plant response rating, Poinsettia, Wild","[10]; Preemergence, 61 g ai/ha",5
same,"Plant response rating, Poinsettia, Wild","[10]; Preemergence, 62 g ai/ha",10
same,"Plant response rating, Poinsettia, Wild","[10]; Preemergence, 125 g ai/ha",35
same,"Plant response rating, Ryegrass, Italian","[11]; Postemergence, 16 g ai/ha",70
same,"Plant response rating, Ryegrass, Italian","[11]; Postemergence, 31 g ai/ha",85
same,"Plant response rating, Ryegrass, Italian","[11]; Postemergence, 62 g ai/ha",95
same,"Plant response rating, Ryegrass, Italian","[11]; Postemergence, 125 g ai/ha",100
same,"Plant response rating, Ryegrass, Italian","[11]; Preemergence, 31 g ai/ha",25
same,"Plant response rating, Ryegrass, Italian","[11]; Preemergence, 61 g ai/ha",5
same,"Plant response rating, Ryegrass, Italian","[11]; Preemergence, 62 g ai/ha",98
same,"Plant response rating, Ryegrass, Italian","[11]; Preemergence, 125 g ai/ha",90
same,"Plant response rating, Soybean","[12]; Postemergence, 16 g ai/ha",5
same,"Plant response rating, Soybean","[12]; Postemergence, 31 g ai/ha",10
same,"Plant response rating, Soybean","[12]; Postemergence, 62 g ai/ha",20
same,"Plant response rating, Soybean","[12]; Postemergence, 125 g ai/ha",25
same,"Plant response rating, Soybean","[12]; Preemergence, 31 g ai/ha",5
same,"Plant response rating, Soybean","[12]; Preemergence, 61 g ai/ha",0
same,"Plant response rating, Soybean","[12]; Preemergence, 62 g ai/ha",0
same,"Plant response rating, Soybean","[12]; Preemergence, 125 g ai/ha",30
same,"Plant response rating, Surinam Grass","[13]; Postemergence, 16 g ai/ha",80
same,"Plant response rating, Surinam Grass","[13]; Postemergence, 31 g ai/ha",85
same,"Plant response rating, Surinam Grass","[13]; Postemergence, 62 g ai/ha",95
same,"Plant response rating, Surinam Grass","[13]; Postemergence, 125 g ai/ha",95
same,"Plant response rating, Surinam Grass","[13]; Preemergence, 31 g ai/ha",90
same,"Plant response rating, Surinam Grass","[13]; Preemergence, 61 g ai/ha",75
same,"Plant response rating, Surinam Grass","[13]; Preemergence, 62 g ai/ha",95
same,"Plant response rating, Surinam Grass","[13]; Preemergence, 125 g ai/ha",100
same,"Plant response rating, Windgrass","[14]; Postemergence, 16 g ai/ha",85
same,"Plant response rating, Windgrass","[14]; Postemergence, 31 g ai/ha",85
same,"Plant response rating, Windgrass","[14]; Postemergence, 62 g ai/ha",100
same,"Plant response rating, Windgrass","[14]; Postemergence, 125 g ai/ha",100
same,"Plant response rating, Windgrass","[14]; Preemergence, 31 g ai/ha",80
same,"Plant response rating, Windgrass","[14]; Preemergence, 61 g ai/ha",0
same,"Plant response rating, Windgrass","[14]; Preemergence, 62 g ai/ha",85
same,"Plant response rating, Windgrass","[14]; Preemergence, 125 g ai/ha",100
